# Key:
# M-MDSCs = assay: Tumor immunophenotyping of CT26 tumors (MDSCs); assay type: in vivo, mice; conditions: 0.2 mg/kg ip, CT26 tumors 250-1500 mm^3
# Method: Tumor Immunophenotyping. To determine the effect of a therapeutic agent on a specific immune cell type in vivo, syngeneic tumor models were employed. In a typical experiment, tumors were allowed to grow to a certain size and were then treated for a specific number of days prior to termination. At the end of the experiment, animals were euthanized, tumors were excised and single cell suspensions were immediately obtained through dissociation of tumor tissues with collagenase. Tumor cell suspensions were then subject to FACS analysis in order to determine the presence of various biomarkers.
# Tumor Immunophenotyping of CT26 Tumors. CT26-tumor bearing mice treated with either vehicle control or 0.2 mg/kg Compound (6) (ip, twice a day) were euthanized when the tumors had reached a size of 250-1500 mm^3. Tumors were excised and single cell suspensions were obtained using the tumor dissociation kit from Miltenyi Biotec per manufacturer's instructions. The suspensions were analyzed for the presence of MDSCs.
# [1] = tested on: C6-IRG1-9 rat glioma cells; assay: C6-IRG1-9 rat glioma cell proliferation, CyQuant; assay type: cell-based; conditions: various concentrations, 48 hrs
# Method: Tumor Cell Proliferation Assay. This assay was used to assess the anti-tumor properties of a therapeutic agent in vitro. In a typical proliferation assay, cells were cultured to near confluency in the appropriate media. Subsequently, the cells were trypsinized and plated onto 96-well plates at 2,000 or 5,000 cell per well. The cells were cultured for 48 to 96 hours in the presence or absence of the therapeutic agent. Cell proliferation was then determined using spectrophotometry (MTT assay, BrdU assay) or fluorimetry (Cyquant assay).
# Inhibition of C6-IRG1-9 Rat Glioma cell proliferation. C6-IRG1-9 cells are rat C6 glioma cells that have been transfected to overexpress IRG1. Overexpression of IRG1 is maintained by culturing the cells in DMEM media containing 0.55 μg/mL puromycin. For the proliferation assays, the cells were plated onto a 96-well plate at a density of 2,000 cells/well. The cells were allowed to adhere overnight; they were subsequently treated with various concentrations of compounds of Formula (2) for 48 hrs. At the end of the incubation period, the number of cells is assessed using the CyQuant Cell Proliferation kit (Thermo Fisher) according to the manufacturer's instructions. The results, shown in FIG. 3, indicate that compounds of Formula (2) are able to reduce or abrogate growth of C6-IRG1-9 cells. In FIG. 3, cell proliferation is expressed as % Untreated Control, defined as: […]
# where t is the number of cells present in a treated well at the end of the incubation period, c is the number of cells present in an untreated well at the end of the incubation period, and s is the initial number of cells in the wells prior to initiation of treatment.
# IRG1 = biological target: T1, IRG1 (Homo sapiens, UniProt A6NK06); assay: Itaconic acid synthesis by LPS-stimulated macrophages (inhibition of IRG1), GC-MS; assay type: cell-based; conditions: LPS-stimulated hMDMs, 50, 100, 500 μM, LPS 8 hrs
# T1 construct: Human monocytes, isolated from peripheral blood and differentiated into macrophages; endogenous in cells; host or cells: human monocyte-derived macrophages (hMDMs), M-CSF differentiated, LPS-stimulated
# T1 sequence (A6NK06 1-481): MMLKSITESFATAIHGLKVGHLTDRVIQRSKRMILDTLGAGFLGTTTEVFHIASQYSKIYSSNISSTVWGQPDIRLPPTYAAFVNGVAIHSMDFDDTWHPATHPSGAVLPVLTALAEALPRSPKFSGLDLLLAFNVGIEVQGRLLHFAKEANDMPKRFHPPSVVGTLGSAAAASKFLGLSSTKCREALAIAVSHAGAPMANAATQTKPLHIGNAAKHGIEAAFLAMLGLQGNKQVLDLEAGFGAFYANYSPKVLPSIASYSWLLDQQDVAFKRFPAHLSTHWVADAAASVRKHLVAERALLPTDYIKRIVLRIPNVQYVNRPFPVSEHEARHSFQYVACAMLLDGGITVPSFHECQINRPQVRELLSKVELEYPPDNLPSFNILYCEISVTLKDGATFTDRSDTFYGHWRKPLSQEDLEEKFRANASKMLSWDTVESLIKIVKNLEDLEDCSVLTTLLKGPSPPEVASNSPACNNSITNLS
# Method: Inhibition of IRG1. Itaconic acid levels are a measure of IRG1 expression/activity. To determine the activity of IRG, hMDMs were stimulated with 100 ng/mL LPS for 8 hrs in the presence or absence of the therapeutic agent. Gas chromatography-mass spectroscopy (GC-MS) was used to estimate the intracellular and extracellular concentration of the itaconic acid. In a typical assay, 1-5×10^6 cells were plated onto a 6-well plate and allowed to adhere overnight. The cells were then stimulated with 0.1-1 μg/mL LPS in the presence or absence of the compound of interest for 8 hrs. The cells were then washed and metabolites were extracted using methanol/water and acetonitrile additions. The aqueous phase of the mixture was dried and metabolites present were derivatized prior to the detection by GC-MS.
# Itaconic Acid Synthesis by LPS-Stimulated Macrophages after Treatment with Compound (6). Human monocytes, isolated from peripheral blood and differentiated into macrophages in the presence of 100 ng/mL monocyte colony-stimulating factor (M-CSF) for 5 days, were plated onto a 6-well plate at a density of 1×10^6 cells/well. The cells were allowed to adhere overnight. […] Derivatized metabolites were analyzed by GC-MS. The amount of itaconic acid present in the samples was determined after peak integration. […]
# TNFα = assay: In vitro inflammation assay: TNFα secretion from LPS-stimulated hMDMs, ELISA; assay type: cell-based, human; conditions: concentrations ≥500 μM, 1 μg/mL LPS, 6 h
# Method: In Vitro Inflammation Assay. In vitro inflammation was assessed by measuring the concentration of TNFα in the conditioned media of macrophages stimulated with 0.1-1 μg/mL LPS in the presence or absence of the compound of interest after 4-6 hrs.
# Inhibition of TNFα secretion. hMDMs were pretreated with various concentrations of Compound (6) for 15 min and then stimulated with 1 μg/mL LPS. Conditioned media were collected 6 h later and TNFα concentrations were determined by ELISA.
structure (smiles),measurement,setting,value
"O=C(O)/C(=C\c1ccc(F)cc1)C(Cc1ccccc1)C(=O)O (centres unmarked) [Compound (6), 2-benzyl-3-[(4-flurophenyl)methylidene]butanedioic acid]",intratumoral frequency of M-MDSCs,M-MDSCs,significantly reduces
same,proliferation of C6-IRG1-9 rat glioma cells,[1],inhibition of proliferation
same,extracellular levels of itaconic acid,IRG1,suppressed
same,intracellular levels of itaconic acid,IRG1,suppressed
same,secretion of TNFα,TNFα,reduced secretion

# — patent publication US20210261495A1, “COMPOSITIONS AND METHODS OF USING ITACONIC ACID DERIVATIVES” (ERGON PHARMACEUTICALS, LLC, priority 2018, published 2021)
